Common to all, as to test: NCI anticancer screen, dose series, 48 h
The subject of assay [1] is CCRF-CEM leukemia.
The subject of assay [2] is DLD-1 colon.
In assay [3] the test system is HCC-2998 colon.
The subject of assay [4] is HOP-62 NSCLC.
In assay [5] the test system is HT29 colon.
The test system of assay [6] is IGROV1 ovarian.
Assay [7] deals with K-562 leukemia.
The subject of assay [8] is LXFL 529 NSCLC.
Assay [9] has as its system SNB-75 CNS.
Assay [10] deals with SW-620 colon.

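Following 48 hours of exposure in 96-well plates, responses at five concentrations were used to interpolate endpoints linearly. TGI denotes the concentration required for complete inhibition of growth.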 A value given as a limit tells only on which side of the number the result lay.

Consider `CC12OOC(c3ccccc31)c1c2ccc2ccccc12` (configuration not stated), for which the TGI stood at 2.8 µM in [1]; 3.06 µM in [2]; 16.2 µM in assay [3]; 30.2 µM in [4]; 6.02 µM in assay [5]; 3.67 µM in assay [6]. Besides, the TGI turned out to be 3.58 µM in assay [7], 4.81 µM in assay [8], 22.5 µM in assay [9] and 3.94 µM in [10].

On to `O=C1/C(=N\O)c2ccccc2S1(=O)=O`, for which the TGI in assay [1], in assay [2], in assay [3], in [4], in [5] and in [6] was more than 100 µM throughout. In addition, the TGI in assay [7], in assay [8], in assay [9] and in assay [10] was more than 100 µM each time.

In the case of `Nc1nc2c(ncn2C2CCC(CO)O2)c(=O)n1C(=O)c1ccccc1` (configuration not stated), the TGI in assay [1], in assay [2], in assay [3], in [4], in assay [5] and in [6] was more than 100 µM in each case. Also, the TGI in assay [7], in assay [8], in [9] and in assay [10] was more than 100 µM throughout.

In the case of `COc1c(C)cc(O)cc1C=O`, the TGI in assay [1], in [2], in assay [3], in assay [4], in [5] and in [6] was more than 100 µM throughout. In addition, the TGI in [7], in assay [8], in assay [9] and in assay [10] was more than 100 µM each time.

Consider `CN(C)c1ccc(/C=C/C(=O)[O-])cc1.CN(C)c1ccc(/C=C/C(=O)[O-])cc1.[Cu+2]`, for which the TGI in assay [1], in assay [2], in [3], in assay [4], in [5] and in [6] was more than 100 µM in each case. The TGI in assay [7], in assay [8], in assay [9] and in assay [10] was more than 100 µM throughout.

In the case of `CC1=Nc2ccccc2NC(c2ccoc2)C1` (configuration not stated), the TGI in assay [1], in assay [2], in assay [3], in [4], in [5] and in [6] was more than 100 µM throughout. In addition, the TGI in assay [7], in assay [8], in assay [9] and in assay [10] was more than 100 µM each time.

With `COC(=O)C1=Cc2cc(OC)c(OC)c(OC)c2[C@H](c2cc(OC)c(OC)c(OC)c2)C1C(=O)OC` (some centres not stated), the TGI in [1], in [2], in [3], in [4], in assay [5] and in assay [6] was more than 100 µM in each case. Besides, the TGI in assay [7], in assay [8], in assay [9] and in [10] was more than 100 µM throughout.

Turning to `O=[N+]([O-])c1ccc(C2CC(c3ccccc3Cl)=Nc3ccccc3S2)cc1` (configuration not stated), the TGI came to 6.77 µM in assay [1]; 7.24 µM in assay [2]; 54.2 µM in assay [3]; 68.2 µM in [4]; 45.9 µM in assay [5]; 29.6 µM in [6]. The TGI turned out to be 6.35 µM in assay [7], 11.8 µM in assay [8], 44.1 µM in [9] and 4.78 µM in [10].

As to `Nc1c(-c2cn(Cc3ccccc3)c3ccccc23)[n+]([O-])c2ccccc2[n+]1[O-]`, the TGI in assay [1], in assay [2], in [3], in [5], in assay [6] and in assay [7] was more than 100 µM each time. For the same compound, the figures for the TGI in assay [8], in assay [9] and in [10] were more than 100 µM, 61.6 µM and more than 100 µM, respectively.

`CC(=O)Nc1ccc(/C=c2\sc3nnc(CCC(=O)Nc4ccccc4Cl)n3c2=O)cc1`: the TGI in assay [1] was 42.9 µM; in assay [2] it was more than 100 µM; in assay [3], more than 10 µM; in assay [4], more than 100 µM; in [5], more than 100 µM; in assay [6] it was more than 100 µM. Moreover, the TGI in assay [7] was 68.3 µM; in assay [8], more than 100 µM; in assay [10], 87.5 µM.

On to `COC1OC(CO)C(O)C(OC(C)=O)C1NC(=O)N(CCCl)N=O` (configuration not stated), for which the TGI in assay [1], in assay [2], in [3], in [5], in [6] and in assay [7] was more than 100 µM throughout. Further, the TGI in [8], in assay [9] and in assay [10] was more than 100 µM in each case.
